Common to all, as to format: in vivo
The test system of one data set is LDLR−/− mice. The experiment in a line: Atheroma burden / lesion formation in LDLR−/− mice (Oil Red O, histology). The settings on record: for lipid accumulation / atheroma burden (Oil Red O): high fat diet 20 weeks, 2.5 mg/kg ip daily, vs vehicle, 2.5 mg/kg. As to the method:
Aortas were either immediately embedded and cryopreserved using optimal cutting-temperature medium (Sakura Tissue-Tek, Zoeterwoude, The Netherlands) or fixed in paraformaldehyde and embedded in parafin. The presence of calcification was determined by staining tissue sections with Alizarin red or Von Kossa. Lipid accumulation in tissue sections was visualized by staining with Oil Red O. Liver sections were prepared from paraformaldehyde-fixed tissue and stained with hematoxylin and eosin.
To confirm that BMP signaling has a direct impact on atherogenesis, the aortae explanted from the BMP inhibitor positive control compound-treated and vehicle-treated LDLr−/− mice after 20 weeks were subjected to Oil Red 0 staining to mark lipid-rich plaques.
LDLr−/− mice were started on a hypercholesterolemic diet at 8 weeks, and treated with either vehicle (saline) or a BMP inhibitor positive control compound (compound 13, 2.5 mg/kg/d intraperitoneally) for an additional 8 weeks. Aortae were harvested and fixed, and then stained with antibodies sensitive for the BMP effector molecule, phosphorylated-SMAD1/5/8, and counterstained with DAPI nuclear stain. Within 6-8 weeks of being subjected to a high fat diet, LDR−/− mice developed fatty lesions in the intima of the aortic root, based on traditional histochemical staining techniques (data not shown). […] Thus, the cellular components of lipid rich plaques, predominantly macrophage-derived foam cells, had evidence of intense activation of the BMP signaling pathway. In contrast, the lipid plaques found in the BMP inhibitor positive control compound-treated mice, which were diminished in size and extent as compared to those in vehicle-treated mice, had also diminished intensity of staining for the phosphorylated form of SMAD1/5/8 (data not shown). Thus, hypercholesterolemic mice had evidence of intense BMP signaling pathway activation in the cellular components of atheromatous lesions, and treatment of hypercholesterolemic mice with the BMP inhibitor positive control compound diminished the activation of the BMP signaling pathway in these lesions.
LDLR−/− deficient mice were intiated on an atherogenic diet (Paigen) at 8 weeks of age, and administered either vehicle, a BMP inhibitor positive control compound (compound 13, 2.5 mg/kg IP daily) or ALK3-Fc (2 mg/kg IP every other day). Each treatment group consisted of a total of 10 mice. After 4 weeks of atherogenic diet and drug or vehicle treatment, the animals were sacrificed. The frontal plane sections of the aortic arch were dissected out and stained for macrophage marker (MAC2) and counterstained with DAPI.
LDLR−/− deficient mice were initiated on an atherogenic diet (Paigen) at 8 weeks of age, and administered either vehicle, a BMP inhibitor positive control compound (compound 13, 2.5 mg/kg IP daily) or ALK3-Fc ([…] IP every other day). After 6 weeks of atherogenic diet and treatment, the animals were sacrificed. The frontal plane sections of the aortic arch were dissected out and stained for phosphorylated SMAD1/5/8 and counterstained with DAPI.

The next data set has as its system phospho-Smad 1/5/8. The experiment in a line: Phospho-Smad 1/5/8 immunohistochemistry in MGP−/− aortas. Particulars: MGP−/− mice, 2.5 mg/kg once daily IP day 1 to 28. As to the method: MGP−/− mice were treated with either vehicle or the small molecule BMP type I receptor inhibitor compound 13 (2.5 mg/kg once daily IP) from day 1 to 28. Compound 13 is used as a BMP inhibitor positive control compound in these experiments. Whole aortas were harvested for phospho-Smad 1/5/8 (P-Smad) immunohistochemistry, a marker of BMP signaling, and for Alizarin Red staining of calcium. Osteogenic activity in aortas was visualized ex vivo by the uptake of a fluorescent bisphosphonate imaging probe. MGP−/− mice were also treated with vehicle or compound 13 to ascertain if inhibition of BMP signaling could impact survival, using Kaplan-Meier and Cox regression analysis. […] To further quantify aortic calcium, a fluorescent bisphosphonate agent that specifically binds to hydroxyapatite (OsteoSense 680 nm, Perkin Elmer) was used. (Aikawa E, et al. Multimodality molecular imaging identifies proteolytic and osteogenic activities in early aortic valve disease. Circulation. 2007; 115(3):377-386 and Zaheer A, et al. In vivo near-infrared fluorescence imaging of osteoblastic activity. Nature biotechnology. 2001; 19(12):1148-1154.) MGP−/− mice at 27 days of age treated with vehicle or compound 13 received OsteoSense via tail vein, and 24 h later, aortas were harvested for imaging. […]

In another data set the test system is MGP−/− mice. The experiment in a line: Survival of MGP−/− mice. Particulars: 2.5 mg/kg/day IP from day 1, n=10 in each group. As to the method:
MGP−/− mice were treated with either vehicle or the small molecule BMP type I receptor inhibitor compound 13 (2.5 mg/kg once daily IP) from day 1 to 28. Compound 13 is used as a BMP inhibitor positive control compound in these experiments. Whole aortas were harvested for phospho-Smad 1/5/8 (P-Smad) immunohistochemistry, a marker of BMP signaling, and for Alizarin Red staining of calcium. Osteogenic activity in aortas was visualized ex vivo by the uptake of a fluorescent bisphosphonate imaging probe. MGP−/− mice were also treated with vehicle or compound 13 to ascertain if inhibition of BMP signaling could impact survival, using Kaplan-Meier and Cox regression analysis.
Twenty MGP−/− mice were treated either with vehicle (n=10) or compound 13 (2.5 mg/kg/day IP, n=10) beginning at day 1 of life and followed for survival.

The nature of data set [1]: Body weight, food intake and bone mineral density in LDLR−/− mice. Particulars: 2.5 mg/kg ip daily, vs vehicle.

The values that follow come from patent US20140038953A1, “COMPOSITIONS AND METHODS FOR CARDIOVASCULAR DISEASE” (THE GENERAL HOSPITAL CORPORATION, priority 2011, published 2014).

Entries after “also recorded” stand apart in the source; their conditions may differ.

With `c1ccc2c(-c3cnn4cc(-c5ccc(N6CCNCC6)cc5)cnc34)ccnc2c1` [Compound 13, 4-[6-(4-piperazin-1-ylphenyl)pyrazolo[1,5-a]pyrimidin-3-yl]quinoline], the “lesion formation in aortic arch” value in the data set with LDLR−/− mice (LDLR−/− mice, atherogenic diet and treatment 4 weeks, compound 13 2.5 mg/kg IP daily, ALK3-Fc 2 mg/kg IP every other day) is “decreased lesion formation overall”. The “lesion formation / atherogenesis” value with LDLR−/− mice (LDLR−/− mice, atherogenic diet and treatment 6 weeks) was “decreased lesion formation overall”. Further, the “lipid accumulation / atheroma burden (Oil Red O)” value in the data set with LDLR−/− mice (LDLR−/− mice) is listed as “Atheroma burden was reduced; also recorded: marked reduction”; in the data set with LDLR−/− mice (LDLR−/− mice, listed as BMP inhibitor positive control compound) it was “consistently more severe in vehicle-treated”. Also, the intimal atheroma formation entry in the data set on LDLR−/− mice (LDLr−/− mice, hypercholesterolemic diet and treatment 8 weeks, 2.5 mg/kg/d ip) is recorded as “reduced intimal atheroma formation”. In addition, the “aortic P-Smad (Smad 1/5/8 phosphorylation)” value is recorded as “reduced aortic P-Smad” in the data set on phospho-Smad 1/5/8 (2.5 mg/kg) and “reduced BMP signaling” in the data set with phospho-Smad 1/5/8 (listed as compound 13, 2.5 mg/kg). In addition, in the data set on MGP−/− mice, the “Cox hazard ratio (survival)” value came to 0.04. The “survival compared to vehicle-treated controls” value in the data set on MGP−/− mice is listed as “improved survival”. Also, in data set [1] (6 weeks high fat diet, 2.5 mg/kg), the “food intake per gram body weight” value is given as “did not differ significantly; also recorded: not associated with a reduction in body weight or food intake”. Also, in data set [1] (20 weeks high fat diet, 2.5 mg/kg), the body weight result is listed as “did not differ significantly; also recorded: not associated with a reduction in body weight or food intake”. In addition, the “bone mineral density (femur, dual energy X-ray absorptiometry)” value in data set [1] (HFD 20 weeks) is “did not differ”.
